Consider 1 compound from PMC13327620, “A Deep‐Red‐Absorbing Osmium(II) Complex as a Photosensitizer for Photodynamic Therapy Inducing Immunogenic Cell Death” (Angewandte Chemie (International Ed. in English), 2026).

Series [1] in a line: Photostability by UV-vis absorption in PBS with 10% FBS. In kind it is physicochemical. Particulars: 10% FBS in PBS, 50 μM. An excerpt:
Photostability is a crucial parameter for PSs, as it has a significant impact on their phototoxicity. Based on the results of our in vitro phototoxicity studies, and in view of future in vivo experiments, we decided to investigate the stability of Os2 and Ce6 under deep‐red illumination. Therefore, we monitored the UV–vis absorption spectra of Os2 and Ce6 in biological media (10% FBS in PBS, phosphate‐buffered saline) using a 740 nm excitation wavelength for one hour and a 770 nm excitation wavelength for 2 h, with the duration of light exposure kept consistent with in vitro phototoxicity tests. […]
software Fluofit (PicoQuant GmbH, BERLIN, Germany) based on iterative reconvolution using a Levensberg- M arquandt alg oritm, enabling the obtention of multi-exponential profiles (m ainly one or two exponenti als in our cases ).
Compound Os2 and Ce6 were dissolved in biologically relevant media (PBS solution with 10% FBS) at 50 μ M from the stock solution (10 m M in DMSO). The UV -Vi s spectrum of each complex was recorded from 300 nm to 900 nm at 10- or 20- minutes intervals using BioTek Cytation 5 Cell Imaging Multimode Reader (Agilent […]
The hydrodynamic diameter was determined using dynamic light scattering (DLS, Malvern ZetaSizer Nano ZS) at 25 ℃ . PBS with 10% FBS solutions were filtered through a 0.22 µM membrane before use. […]

The test system of series [2] is mouse colon adenocarcinoma (CT26) cells. As to the kind of experiment: Resazurin cell viability assay, (photo)cytotoxicity, normoxia. In kind it is cell-based. The method, then:
Given that most ICD studies focus on breast, non‐small cell lung carcinoma, and colon cancer, and since ICD was first discovered in mouse colon cancer cells (CT26), we initially tested our compounds on CT26 cells. Cells were incubated with nine different concentrations (mainly from 0.01 to 100 µM) of the compounds for 4 h in the dark. Then, the diluted solutions containing the compounds were replaced by fresh medium, and the cells were either illuminated or kept in the dark for 1 h more. After 2 days, IC50 values (concentration of the agent inhibiting cell growth by 50%) were determined with the resazurin assay, using chlorin e6 (Ce6) and protoporphyrin IX (PpIX) for comparison (Figure S10). The clinically approved chlorin mixture Radachlorin contains ∼80% Ce6, while 5‐aminolevulinic acid (Ameluz and Levulan) and methyl 5‐aminolevulinate (Metvix and Metvixia) serve as precursors of PpIX. Therefore, Ce6 and PpIX were used for comparison purposes.
(100 U ml−1), streptomycin (100 U ml−1), and 1% L-glutamine. […]
All cells were incubated at 37 °C in a humidified atmosphere with 5 % CO2.
Normoxia. The in vitro viability of cells exposed to the complexes was determined using a resazurin assay. C ells were seeded in 96-well plates at densities of 4,000 cells/well for CT26, MC A205 and U-87 MG cells, and 8,000 cells/well for MRC-5 and NIH/3T3 cells. A fter 24 h of growth at 37 °C wit h 5% CO2, the medium was replaced with fresh medium containing various concentrations of the compounds . Following a 4- h incubation in the dark, the medium was refres hed , and the plates were exposed to irradiation usinga LUM OS -BIO photoreactor (At las Photonics).N on- ir rad iated plates were similarly refr eshed with medium and kept in the dark for the same duration. After a 40- h r ecov ery period, a f reshly pr epar ed resazurin solution (0.2 mg/mL) was added to each well, and the plates were left in the dark for 4 h before analysis on a B i o Te k Cytation 5 Cell Imaging Multimode Reader (Agil ent Technologies). […]
In general terms: Alamar Blue is a resazurin reagent that responds to reducing activity.

Each structure is given as a SMILES string. Read-outs that look alike come from different tables or passages of the source.

Consider `C=Cc1c(C)c2cc3nc(c(CC(=O)O)c4[nH]c(cc5nc(cc1[nH]2)C(C)=C5CC)c(C)c4C(=O)O)[C@@H](CCC(=O)O)[C@@H]3C` [Ce6, chlorin e6], for which the “Photostability (UV-vis absorption spectrum)” value in series [1] (740 nm excitation, 1 h, 12.60 J/cm2) was “decreased by nearly half after 50 min”; in series [1] (770 nm excitation, 2 h, 15.30 J/cm2), “did not change”. In addition, the PI is listed as above 38 in series [2] (CT26, 480 nm); above 70 in series [2] (CT26, 510 nm); above 30 in series [2] (CT26, 540 nm); above 20 in series [2] (CT26, 595 nm); above 25 in series [2] (CT26, 645 nm); above 51 in series [2] (CT26, 670 nm). The PI in series [2] (CT26, 740 nm) is on record as above 19; in series [2] (CT26, 770 nm), above 4. The “PI (phototoxicity index, IC50 dark/IC50 light)” value in series [2] (CT26, 620 nm) was above 51. For the same compound, the IC50 entry in series [2] (CT26, 770 nm, FWHM 12.5 nm, 15.30 J/cm^2) was “almost non‐phototoxic”; in series [2] (Mus musculus, CT26, CT26, dark, normoxia, read-out: IC50 Dark) it was above 100 µM; in series [2] (Mus musculus, CT26, light or radiation study, 1 h, CT26, 620 nm, 1.88 mW/cm^2, 60 min, normoxia, read-out: IC50 620 nm (1 h, 6.75 J/cm^2)), 1.98 ± 0.11 µM; in series [2] (Mus musculus, CT26, light or radiation study, CT26, 480 nm, FWHM 10 nm, 3.38 J/cm^2, read-out: IC50), 2.64 ± 0.42 µM; in series [2] (Mus musculus, CT26, light or radiation study, CT26, 510 nm, FWHM 15 nm, 2.44 J/cm^2, read-out: IC50) it was 1.43 ± 0.1 µM; in series [2] (Mus musculus, CT26, light or radiation study, CT26, 540 nm, FWHM 15 nm, 9.00 J/cm^2, read-out: IC50) it was 3.33 ± 0.44 µM. Further, the IC50 in series [2] (Mus musculus, CT26, light or radiation study, CT26, 595 nm, FWHM 10 nm, 3.38 J/cm^2, read-out: IC50) is 5.1 ± 1.44 µM; in series [2] (Mus musculus, CT26, light or radiation study, CT26, 645 nm, FWHM 10 nm, 9.00 J/cm^2, read-out: IC50), 3.93 ± 0.67 µM; in series [2] (Mus musculus, CT26, light or radiation study, CT26, 670 nm, FWHM 10 nm, 13.50 J/cm^2, read-out: IC50), 1.97 ± 0.42 µM; in series [2] (Mus musculus, CT26, light or radiation study, CT26, 740 nm, FWHM 10 nm, 12.60 J/cm^2, read-out: IC50) it was 5.27 ± 0.46 µM; in series [2] (Mus musculus, CT26, light or radiation study, CT26, 770 nm, FWHM 12.5 nm, 15.30 J/cm^2, read-out: IC50), 25.4 ± 3.72 µM.
